Where a name gives a salt, the structure may show the parent alone.
Test: Reduction of body weight with ellipticine hydrochloride in mice
Assay type: in vivo
Settings: initial body weight 30 g, every weekday
Method: In order to determine the effect of ellipticine and ellipticine derivatives in reducing body weight, ellipticine hydrochloride was administered to mice every weekday for 4 weeks (30 days) and their body weights tracked. Ellipticine hydrochloride was solubilized in saline and administered via intraperitoneal injection. Animals were weighed weekly.
Mice (6 per group) were divided into seven groups and given one of the following treatments: • 1. 10 mg ellipticine hydrochloride/kg body weight (Low) • 2. 20 mg ellipticine hydrochloride/kg body weight (Mid) • 3. 30 mg ellipticine hydrochloride/kg body weight (High) • 4. Saline • 5. 3 mg/kg body weight (Positive control 2) • 6. 5 mg/kg body weight (Positive control low) • 7. 10 mg/kg body weight (Positive control high)

Cc1c2ccncc2c(C)c2c1[nH]c1ccccc12 [ellipticine hydrochloride]
body weight loss (decrease of body weight) (10 mg/kg (Low) intraperitoneal in saline, end of 4 weeks): more than 18% | body weight loss (20 mg/kg (Mid) intraperitoneal in saline, end of week 3, animals then sacrificed): more than 33% | reduction in body weight (30 mg/kg (High) intraperitoneal in saline, end of week 2, animals then sacrificed): 28%

Reference: US8513274B2, “Ellipticine compounds for treating obesity” (Etzem, Inc., priority 2009, dated 2013)
